From ChEMBL document CHEMBL1201862, “PubChem BioAssay data set” (2004)
Active and inactive are the calls of the source.

Experiments:
[1] = target: T1, Microphthalmia-associated transcription factor (Homo sapiens, UniProt O75030); assay: TRPM1 promoter luciferase signal decrease, dose response, MITF inhibitor project, cell-based, SK-MEL-5, cherry-picked, set 3 (AID 493073); assay type: functional
T1 sequence (O75030 whole entry): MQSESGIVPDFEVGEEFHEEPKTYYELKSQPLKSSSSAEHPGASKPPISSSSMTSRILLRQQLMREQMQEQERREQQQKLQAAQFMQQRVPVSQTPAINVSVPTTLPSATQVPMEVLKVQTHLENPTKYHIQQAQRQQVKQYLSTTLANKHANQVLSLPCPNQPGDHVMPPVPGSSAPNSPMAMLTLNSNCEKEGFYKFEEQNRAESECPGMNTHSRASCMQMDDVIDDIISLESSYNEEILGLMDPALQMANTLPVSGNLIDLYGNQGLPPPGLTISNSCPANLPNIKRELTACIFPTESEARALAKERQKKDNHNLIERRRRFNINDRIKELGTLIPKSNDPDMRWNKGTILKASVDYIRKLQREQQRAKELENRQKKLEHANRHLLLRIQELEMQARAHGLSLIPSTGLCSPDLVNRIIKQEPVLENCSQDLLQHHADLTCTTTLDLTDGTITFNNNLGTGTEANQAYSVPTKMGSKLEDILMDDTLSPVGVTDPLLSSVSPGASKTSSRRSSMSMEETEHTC

[2] = system: Vero; assay: Vero cell cytotoxicity, cytotoxicity control for flavivirus capping enzyme inhibitors (AID 588742); assay type: functional; conditions: Chlorocebus sabaeus
[3] = target: Polyadenylate-binding protein 1 (Homo sapiens, UniProt P11940); assay: PABP1 MLLE–PAM2 binding inhibitor potency, dose response, biochemical, fluorescence polarization, FITC-PAM2 peptide (AID 602259); assay type: functional; conditions: read-out: IC50_Mean
[4] = target: T2, Apoptotic protease-activating factor 1 (Homo sapiens, UniProt O14727); assay type: functional
T2 sequence (O14727 whole entry): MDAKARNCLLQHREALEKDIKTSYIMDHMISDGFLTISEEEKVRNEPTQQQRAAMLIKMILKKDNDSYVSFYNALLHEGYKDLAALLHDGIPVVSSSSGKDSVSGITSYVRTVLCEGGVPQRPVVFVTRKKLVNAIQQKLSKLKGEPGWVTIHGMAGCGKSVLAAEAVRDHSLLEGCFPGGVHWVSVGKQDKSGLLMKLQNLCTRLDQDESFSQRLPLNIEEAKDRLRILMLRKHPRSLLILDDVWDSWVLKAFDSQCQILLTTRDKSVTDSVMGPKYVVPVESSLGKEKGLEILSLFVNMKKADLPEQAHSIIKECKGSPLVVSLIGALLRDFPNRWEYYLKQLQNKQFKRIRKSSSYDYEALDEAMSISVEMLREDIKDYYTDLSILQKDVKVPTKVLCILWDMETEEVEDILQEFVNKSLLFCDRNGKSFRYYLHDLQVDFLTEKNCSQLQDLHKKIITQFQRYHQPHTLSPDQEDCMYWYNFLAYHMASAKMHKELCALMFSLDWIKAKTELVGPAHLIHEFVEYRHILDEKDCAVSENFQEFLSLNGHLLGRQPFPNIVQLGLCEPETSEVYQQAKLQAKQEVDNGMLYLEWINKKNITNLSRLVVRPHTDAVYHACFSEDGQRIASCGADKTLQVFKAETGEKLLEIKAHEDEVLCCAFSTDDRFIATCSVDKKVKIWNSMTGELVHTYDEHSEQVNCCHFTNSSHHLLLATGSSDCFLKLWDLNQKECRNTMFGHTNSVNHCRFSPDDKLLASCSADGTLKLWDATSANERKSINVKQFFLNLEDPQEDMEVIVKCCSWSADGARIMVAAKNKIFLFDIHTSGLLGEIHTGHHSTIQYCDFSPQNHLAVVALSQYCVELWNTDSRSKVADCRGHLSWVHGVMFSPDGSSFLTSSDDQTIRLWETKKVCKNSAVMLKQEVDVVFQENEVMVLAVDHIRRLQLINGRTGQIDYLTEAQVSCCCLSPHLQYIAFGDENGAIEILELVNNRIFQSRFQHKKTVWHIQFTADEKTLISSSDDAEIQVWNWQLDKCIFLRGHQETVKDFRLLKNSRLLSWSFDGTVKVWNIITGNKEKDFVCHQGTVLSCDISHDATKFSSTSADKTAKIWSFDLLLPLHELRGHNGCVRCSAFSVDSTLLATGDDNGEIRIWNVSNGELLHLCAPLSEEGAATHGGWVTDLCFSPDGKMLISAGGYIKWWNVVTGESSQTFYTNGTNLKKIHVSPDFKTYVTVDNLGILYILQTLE

[5] = target: T3, Caspase-3 (Homo sapiens, UniProt P42574); assay: caspase-3 enzyme inhibitors, selectivity check, dose response, selectivity assay for caspase-6 allosteric inhibitor project, biochemical, fluorescence, cherry-picked samples (AID 743291)
T3 sequence (P42574 whole entry): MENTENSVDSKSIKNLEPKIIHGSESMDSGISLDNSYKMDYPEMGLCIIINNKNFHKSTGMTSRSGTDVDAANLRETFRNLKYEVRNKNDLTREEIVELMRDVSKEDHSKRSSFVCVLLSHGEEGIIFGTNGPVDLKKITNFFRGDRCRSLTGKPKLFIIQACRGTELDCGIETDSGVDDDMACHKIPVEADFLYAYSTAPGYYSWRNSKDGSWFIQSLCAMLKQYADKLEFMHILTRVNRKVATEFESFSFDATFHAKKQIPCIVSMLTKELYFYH

[6] = target: Tyrosyl-DNA phosphodiesterase 2 (Homo sapiens, UniProt O95551); assay: human TDP2 enzyme inhibitors, dose response, biochemical, epi absorbance, IC50 (AID 743297)
[7] = target: Caspase-9 (Homo sapiens, UniProt P55211); assay: caspase-9 enzyme inhibition, dose response, selectivity assay for caspase-6 inhibitor project, biochemical, fluorescence, plate reader, cherry-picked samples (AID 743293)
[8] = target: T4, Caspase-6 (Homo sapiens, UniProt P55212); assay: human caspase-6 inhibitors, dose response, biochemical, VEID-R110 fluorescence, cherry-pick (AID 720632)
T4 sequence (P55212 whole entry): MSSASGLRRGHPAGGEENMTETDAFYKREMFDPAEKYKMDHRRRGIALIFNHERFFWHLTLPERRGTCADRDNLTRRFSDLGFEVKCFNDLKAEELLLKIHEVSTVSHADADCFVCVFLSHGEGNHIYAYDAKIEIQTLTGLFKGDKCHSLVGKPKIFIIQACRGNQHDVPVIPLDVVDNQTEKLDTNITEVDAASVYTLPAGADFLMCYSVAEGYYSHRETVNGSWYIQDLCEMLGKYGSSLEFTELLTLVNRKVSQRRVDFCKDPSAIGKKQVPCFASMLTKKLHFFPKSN

[9] = target: Hexokinase HKDC1 (Homo sapiens, UniProt Q2TB90); assay: HKDC1 hexokinase inhibitors, dose response, biochemical, W721R variant (AID 504729); assay type: functional
[10] = target: T5, SUMO-activating enzyme (Homo sapiens, UniProt Q9UBT2); assay: SUMOylation inhibitor hit validation, confirmation, SUMOylation inhibitor project, biochemical, AlphaScreen (AID 2018); assay type: functional
[11] = target: T5, SUMO-activating enzyme; assay: inhibitors of in vitro SUMOylation cascade, primary screen, biochemical, HTRF, uHTS (AID 2006); assay type: protein-complex assay

T5 sequence (Q9UBE0 whole entry): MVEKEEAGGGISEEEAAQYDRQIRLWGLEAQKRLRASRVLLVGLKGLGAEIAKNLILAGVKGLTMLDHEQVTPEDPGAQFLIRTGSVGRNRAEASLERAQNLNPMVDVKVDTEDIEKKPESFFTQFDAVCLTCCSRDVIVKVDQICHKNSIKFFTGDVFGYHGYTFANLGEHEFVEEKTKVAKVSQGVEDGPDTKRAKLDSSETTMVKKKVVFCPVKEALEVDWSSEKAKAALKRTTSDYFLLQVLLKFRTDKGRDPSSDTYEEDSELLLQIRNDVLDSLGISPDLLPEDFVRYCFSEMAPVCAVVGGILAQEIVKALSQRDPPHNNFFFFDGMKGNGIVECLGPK
T5 sequence (Q9UBT2 whole entry): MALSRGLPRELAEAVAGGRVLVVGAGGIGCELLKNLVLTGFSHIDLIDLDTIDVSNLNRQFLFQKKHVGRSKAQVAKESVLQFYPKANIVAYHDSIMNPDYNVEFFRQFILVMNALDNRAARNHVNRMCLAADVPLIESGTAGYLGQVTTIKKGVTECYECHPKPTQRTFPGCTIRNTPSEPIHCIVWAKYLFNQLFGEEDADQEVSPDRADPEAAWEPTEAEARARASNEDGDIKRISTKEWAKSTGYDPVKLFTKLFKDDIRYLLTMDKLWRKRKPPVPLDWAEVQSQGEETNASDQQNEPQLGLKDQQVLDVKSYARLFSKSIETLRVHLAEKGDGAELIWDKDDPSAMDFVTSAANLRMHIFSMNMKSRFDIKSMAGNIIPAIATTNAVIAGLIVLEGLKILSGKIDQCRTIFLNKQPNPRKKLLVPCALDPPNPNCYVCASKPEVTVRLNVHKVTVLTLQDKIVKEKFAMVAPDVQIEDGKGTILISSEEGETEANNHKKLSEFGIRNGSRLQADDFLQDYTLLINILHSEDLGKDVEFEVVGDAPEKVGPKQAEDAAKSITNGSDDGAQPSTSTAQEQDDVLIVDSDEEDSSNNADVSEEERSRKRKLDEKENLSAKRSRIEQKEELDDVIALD
Chain of Polyadenylate-binding protein 1 (P11940 whole entry): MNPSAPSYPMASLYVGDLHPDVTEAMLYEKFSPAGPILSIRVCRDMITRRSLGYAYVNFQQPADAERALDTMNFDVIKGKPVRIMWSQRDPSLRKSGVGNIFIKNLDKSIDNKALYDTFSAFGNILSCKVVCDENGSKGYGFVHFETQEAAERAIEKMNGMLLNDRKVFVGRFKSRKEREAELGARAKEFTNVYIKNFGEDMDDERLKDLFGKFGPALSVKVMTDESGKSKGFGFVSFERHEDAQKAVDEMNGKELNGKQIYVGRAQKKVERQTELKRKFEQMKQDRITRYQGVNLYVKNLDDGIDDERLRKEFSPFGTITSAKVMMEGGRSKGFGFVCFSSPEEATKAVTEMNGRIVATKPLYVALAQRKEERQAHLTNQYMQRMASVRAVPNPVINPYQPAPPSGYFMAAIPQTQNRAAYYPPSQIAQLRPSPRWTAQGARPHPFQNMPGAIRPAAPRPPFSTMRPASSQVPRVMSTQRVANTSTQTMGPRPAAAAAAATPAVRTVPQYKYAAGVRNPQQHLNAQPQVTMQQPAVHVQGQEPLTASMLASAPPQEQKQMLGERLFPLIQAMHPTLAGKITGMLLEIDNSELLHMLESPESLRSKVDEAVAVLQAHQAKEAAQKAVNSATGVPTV
Chain of Caspase-9 (P55211 1-315 limits assumed): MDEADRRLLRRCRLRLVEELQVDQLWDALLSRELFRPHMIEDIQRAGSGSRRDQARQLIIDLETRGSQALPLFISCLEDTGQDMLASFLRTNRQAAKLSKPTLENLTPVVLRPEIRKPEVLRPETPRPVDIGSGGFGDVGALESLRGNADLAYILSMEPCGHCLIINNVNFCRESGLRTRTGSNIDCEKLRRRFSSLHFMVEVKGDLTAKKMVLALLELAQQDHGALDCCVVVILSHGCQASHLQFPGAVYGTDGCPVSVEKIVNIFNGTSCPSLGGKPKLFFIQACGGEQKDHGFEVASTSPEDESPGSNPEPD
Chain of Caspase-9 (P55211 331-416 limits assumed): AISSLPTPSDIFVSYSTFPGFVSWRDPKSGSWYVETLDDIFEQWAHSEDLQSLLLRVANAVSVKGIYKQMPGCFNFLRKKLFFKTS
Chain of Tyrosyl-DNA phosphodiesterase 2 (O95551 whole entry): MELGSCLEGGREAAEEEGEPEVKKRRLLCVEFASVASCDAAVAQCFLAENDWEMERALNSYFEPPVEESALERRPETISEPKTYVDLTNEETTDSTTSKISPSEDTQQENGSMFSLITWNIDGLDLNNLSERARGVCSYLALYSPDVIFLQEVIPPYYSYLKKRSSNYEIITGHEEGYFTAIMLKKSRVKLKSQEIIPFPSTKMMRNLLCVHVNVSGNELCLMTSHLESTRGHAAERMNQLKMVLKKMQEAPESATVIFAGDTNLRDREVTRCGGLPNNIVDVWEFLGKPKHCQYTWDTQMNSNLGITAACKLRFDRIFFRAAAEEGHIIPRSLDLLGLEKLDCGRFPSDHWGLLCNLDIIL
Chain of Hexokinase HKDC1 (Q2TB90 whole entry): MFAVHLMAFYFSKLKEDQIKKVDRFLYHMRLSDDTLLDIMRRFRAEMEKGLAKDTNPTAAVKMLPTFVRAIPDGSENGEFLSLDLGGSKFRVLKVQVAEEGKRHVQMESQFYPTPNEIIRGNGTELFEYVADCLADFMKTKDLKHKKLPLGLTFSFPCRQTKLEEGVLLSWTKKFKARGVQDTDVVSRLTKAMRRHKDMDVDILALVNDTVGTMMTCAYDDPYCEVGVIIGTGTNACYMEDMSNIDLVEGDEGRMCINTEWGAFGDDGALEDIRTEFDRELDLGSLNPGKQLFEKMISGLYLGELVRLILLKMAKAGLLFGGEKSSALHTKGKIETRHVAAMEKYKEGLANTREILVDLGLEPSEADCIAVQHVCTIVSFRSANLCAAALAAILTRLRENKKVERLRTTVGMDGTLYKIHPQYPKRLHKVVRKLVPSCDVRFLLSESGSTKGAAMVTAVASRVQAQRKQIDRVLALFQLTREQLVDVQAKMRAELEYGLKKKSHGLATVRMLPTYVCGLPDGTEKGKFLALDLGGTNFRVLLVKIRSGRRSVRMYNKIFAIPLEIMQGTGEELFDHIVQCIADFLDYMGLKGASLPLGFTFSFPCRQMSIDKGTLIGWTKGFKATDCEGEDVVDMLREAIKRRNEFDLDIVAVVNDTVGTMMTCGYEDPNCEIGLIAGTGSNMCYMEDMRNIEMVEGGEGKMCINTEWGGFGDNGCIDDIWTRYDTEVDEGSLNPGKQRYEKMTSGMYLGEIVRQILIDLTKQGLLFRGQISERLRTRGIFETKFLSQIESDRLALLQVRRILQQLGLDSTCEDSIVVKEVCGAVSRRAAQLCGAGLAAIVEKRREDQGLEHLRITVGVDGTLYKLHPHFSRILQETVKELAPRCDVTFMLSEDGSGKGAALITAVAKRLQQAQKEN

Compound | AC50 [1] | CC50 [2] | IC50 [3] | IC50 [4] | AC50 [5] | IC50 [6] | AC50 [7] | AC50 [8] | IC50 [9] | IC50 [10] | IC50 [11]
COC1=C(c2ccccc2)C(=O)c2ccccc2C1=O | 9.05 µM (active) | 17.8 µM (active) | > 66 µM (inactive) | – | – | – | – | – | – | – | –
COc1cc2c(cc1OC)-c1c(OC)c(OC)cc3c1[C@H](C2)N(C)CC3 | – | – | – | 2.82 µM (active) | 6.27 µM (active) | 6.22 µM (active) | 39.9 µM (active) | 926 nM (active) | – | – | –
O=C1C(Cl)=C(N2CCC(C(=O)O)CC2)C(=O)c2ccccc21 | – | – | – | 13.4 µM (active) | – | – | – | – | 8.29 µM (active) | 5.75 µM (active) | 24 µM (active)
